These results are taken from patent US6017958A, “Method of treating malignant tumors with thyroxine analogues having no significant hormonal activity” (Octamer, Inc., priority 1997, dated 2000).

Data set [1] concerns DU 145 (prostate cancer). Description: Cytocidal action/growth inhibition, DU 145. Type of data set: cell-based. The conditions noted are these: Homo sapiens. The method, then:
(§1) Seven human cancer cell lines were obtained from the American Tissue Culture Collection (Rockville, Md.) and maintained in the recommended growth media. Cells were seeded into wells (2 cm^2) at a density of 2×10^4 cells/cm^2. Various concentrations of Compounds 1-13 were added to the media at the time of seeding.
(§2) The cultures were incubated for 72 hours at 37° C. (5% CO2 atmosphere). Following incubation, cells were detached with trypsin and counted in a hemocytometer.
(§3) I100 designates the concentration at which no viable cells remained; I50 the concentration at which 50% viable cells remained, as compared to a control.
(§4) E-ras 20 cells were cultured as reported, Bauer et al., 1996, "Modification of growth related enzymatic pathways and apparent loss of tumorigenicity of a ras-transformed bovine endothelial cell line by treatment with 5-iodo-6-amino-1,2-benzopyrone (INH2 BP)" Intl. J. Oncol. 8:239-252; HT-144 (melanoma), DU-145 (prostatic cancer), HeLa (cervical cancer), HL 60 (promyelocytic leukemia), MDA-MB-231 (mammary cancer), SK-Br-3 (mammary cancer), T47D (ductal mammary cancer), A559 (lung cancer) were obtained from American Type Culture Collection (Rockville, Md.) and cultured in prescribed media. The effect of DIME was tested in cultures with a starting cell density of 2×10^4 cells per cm^2 and comparison of the effect of DIME on cell growth (intact cells identified by Trypan blue exclusion) was assayed by direct cell counting after trypsinization in a hemocytometer 72 hours after drug addition.
(§5) For DIME-exposure experiments cells were seeded into 2 cm^2 wells at a density of 2×10^4 cells/cm^2. DIME at various concentrations was added to the medium at the time of seeding. The cell cultures were then incubated for 3 days (37° C. in 5% at CO2 atmosphere).

For data set [2], the system named is MDA-MD-231 (mammary cancer). Kind of data set: Cytocidal action/growth inhibition, MDA-MB-231. The class given is cell-based. The conditions noted are these: Homo sapiens. As for the experimental part:
as §1, §2, §3, §4, §5

Data set [3] in a line: In vivo toxicity. More on the design: species or system mouse. As for the experimental part: Ten nude mice were administered a daily oral dose of ^14 C-labeled DIME (Compound 1) (1.0 g/kg, 0.1 mL in corn oil) for a period of 12-15 days.
The subject of data set [4] is MDA-MB-231 cells. Kind of data set: Colony formation / cell killing. The class given is cell-based, human. As for the experimental part:
Assays for Quantitation of colony formation were performed as reported, Vidair, et al., 1986 "Evaluation of a Role for Intracellular Na^+, K^+, Ca2^+ and Mg^2+ in hyperthermic cell killing" Radiation Res. 105:187-200.

Data set [5] deals with DIME-esterase. Description: Esterase cleavage of DIME in tissue homogenates. The class given is in vitro ADME. The conditions noted are these: mouse tissue homogenates. The method, then: (a) mouse tissue homogenate (brain, kidney, liver lung) consisting of 0.2 g of tissue in 1.0 ml. of homogenization buffer (50 mM Tris (pH 7.4), 400 mM NaCl, 10 mM MgCl2, 1 mM EDTA, 0.5% NP-40, 0.5 mM PMSF) each were combined with 1.0 ml of MES buffer (100 mM ph 6.5) containing 20 μM [^14 C]-DIME (10.55 mCi/mmol), and the mixtures were incubated at 37° C. for 4 hours. Then to each tube was added sequentially ethyl acetate (1.5 ml), ammonium sulfate (900 mg) and 60% perchloric acid (160 μl), with vortexing after each addition. After standing for 10 minutes, phase separation was enhanced by benchtop centrifugation. The upper (ethyl acetate) layer was drawn off, and the lower aqueous and interphase material was extracted with a second portion of ethyl acetate (1.5 ml). The ethyl acetate extracts (combined) contained more than 90% of the total cpm present in the original incubate (ca. 4×10^5 cpm). The extracts were evaporated to dryness using a stream of N^2, the respective residues taken up in ethyl acetate (100 μl) and aliquots (10 μl) spotted on analytical silica-gel TLC plates (Whatman PE SIL G/UV flexible plates 250 μm thickness, 10 cm×20 cm) and developed with 3:1:0.8 v:v:v n-hexane/ethyl acetate/ethanol. Analyte bands, including [^14 C]-DIME as reference standard, were visualized by autoradiography. […]
radioactivity of the [^14 C]-DIME was 20,470 cpm/nmol.

Data set [6] has as its system MDA-MB-231 cells. Kind of data set: Immunocytochemistry of mitotic spindle and spindle-associated proteins. Type of data set: cell-based, human. The conditions noted are these: 18 hrs. As for the experimental part: Cells were fixed in methanol at -20° C. for 5 min. The primary antibody was mouse monoclonal anti-beta tubulin (Amersham) and secondary antibody from goat, conjugated to fluorescein isothiocyanate from Cappel (Durham, N.C., USA). The DNA of nuclei was stained by 10 min of incubation in 0.05 μg/ml 4'-6-diamidono-2-phenylindole (DAPI). Stained cells were viewed with either a Zeiss 40xPlan-Neofluar or a Nikon 60xPlanApo objective. For classification of cells in the mitotic phase, prophase and metaphase were combined into a single category, because it was difficult to distinguish late prophase from metaphase.
In preliminary studies (data not shown) we have also studied the behavior of certain spindle-associated proteins by the immunocytologic technique.

In data set [7] the test system is noncancer cells. Kind of data set: Replication of noncancer cells in culture. Type of data set: cell-based. The conditions noted are these: cells growing in cultures; not shown.
Data set [8] relates to iodine uptake into the thyroid. The conditions noted are these: rats, as compared to thyroxine (Money et al., 1959); cited from earlier work.
Data set [9] concerns Rana pipiens tadpoles. As to conditions: tadpole metamorphosis; cited from earlier work.

Entries after “also recorded” stand apart in the source; their conditions may differ. Read-outs that look alike come from different tables or passages of the source.

In the case of `COC(=O)c1cc(I)c(Oc2ccc(OC)cc2)c(I)c1` [Compound 1, Methyl 3,5-diiodo-4-(4'-methoxyphenoxy)benzoate], the IC50 worked out at 500 nM in data set [1] (DU-145, 72 h, day 3, Table 11, read-out: I50 (day 3)); 500 nM in [1] (DU-145, 72 h, Table 4, read-out: I50); 400 nM in data set [2] (MDA-MB-231, 72 h, day 3, Table 11, read-out: I50 (day 3)); 400 nM in data set [2] (MDA-MB-231, 72 h, Table 4, read-out: I50). The IC100 in data set [1] (DU-145, 72 h, Table 4, read-out: I100 (no viable cells remained)) was found to be 3.5 µM; in [2] (MDA-MB-231, 72 h, Table 4, read-out: I100 (no viable cells remained)), 3 µM. In addition, the ill effects entry in data set [3] (1.0 g/kg daily oral, 12-15 days, nude mice, listed as DIME) is reported as “No ill effects were observed; also recorded: produced no ill effects”. Further, the “macroscopically observed toxicity in vivo” value in data set [3] (in vivo) is reported as “no macroscopically observed toxicity in vivo”. Moreover, the colony forming ability result in data set [4] (1-2 μM, 10 days) is recorded as “profoundly diminished”. The “cell killing after drug removal” value in data set [4] (DIME removed prior to end of 8 hours incubation) was “cell killing was prevented and drug-induced morphologic changes were completely reversed”. Besides, in data set [5], the “DIME-esterase activity” value is recorded as “highest rate of "DIME-esterase" activity occurred in brain homogenates”. Further, in data set [6] (1 μM), the “mitotic spindle / tubulin distribution” value is recorded as “striking abnormalities of-tubulin distribution”. Further, in [6] (1 μM, data not shown), the “Cyclin B-microtubule-spindle association” value is given as “remained unchanged”. Besides, the cdc-2 kinase-spindle binding entry in [6] (1 μM, data not shown) is reported as “induction of cdc-2-kinase-spindle binding”. Also, the number of centrosomes entry in data set [6] (1 μM, data not shown) is reported as “unable to detect abnormal number of centrosomes”. Further, the pericentrin staining pattern result in data set [6] (1 μM, data not shown) is “did not alter the pattern of staining”. Further, the “protein phosphatase 2a-spindle association” value in data set [6] (1 μn (so in the source), data not shown) is given as “not influenced by drug-treatment”. The “inhibition of replication of noncancer cells” value in data set [7] is “inhibited to varying degrees”. Also, in data set [8], the “inhibition of uptake of iodine into the thyroid” value was 15%. In addition, the “metamorphosis / cell differentiating activity” value in data set [9] is reported as “no significant metabolic or cell differentiating activity”.
